Source: patent US20240050409A1, “Methods and Compositions for Treating Psychotic Disorders” (SOUND PHARMACEUTICALS INCORPORATED, priority 2014, published 2024)
“Also recorded” adds a separate entry of the source.

Tested on: NVHL rats
Assay: Prepulse inhibition of the acoustic startle response (PPI) in NVHL rats
Assay type: in vivo, Sprague-Dawley rats
Details: adult NVHL rats
Method: To assess whether juvenile oxidative stress leads to behavioral deficits, a behavioral paradigm was used for testing in both animal models and schizophrenia patients. Prepulse inhibition of the acoustic startle response (PPI) is a measure of sensorimotor gating that is reduced in patients (Geyer and Braff, 1987) and NVHL rats (Lipska et al., 1995). PPI was tested in adult sham (n=11), NAC-treated sham (n=12), NVHL (n=9), and NAC-treated NVHL rats (n=17). In addition to loss of PVI maturation and electrophysiological anomalies, developmental oxidative stress in juvenile NVHL rats can cause schizophrenia-relevant adult behavioral deficits.
The beneficial effect of NAC treatment includes a large postnatal treatment that starts prior to the lesion and stops once rats become young adults. For full translational value one determines whether NAC is efficacious when started at an age that corresponds to the time when prodromal stages can be identified in humans. In another set of rats, NAC was administered in the drinking water starting at P35, an age that in rats is equivalent to early adolescence. For PPI deficits was tested in adult SHAM (n=15), untreated NVHL (n=12), and NAC-treated NVHL rats (n=14).
Ebselen is a glutathione peroxidase (GPx) mimic (Muller et al., 1984) that induces GPx expression (Kil et al., 2007) and enhances GSH levels in neurons, replenishing GSH depleted by neurotoxic mechanisms (Pawlas and Malecki, 2007). PPI was tested in adult vehicle-treated SHAM (n=10), Ebselen-treated SHAM (n=7), vehicle-treated NVHL (n=8), and Ebselen-treated NVHL rats (n=9), and Ebselen treatment during adolescence reversed PPI deficits in NVHL rats (as shown in FIG. 15D).
In another group of rats, the effects of the NADPH oxidase inhibitor Apocynin was assessed while delivering through juvenile and adolescent stages. PPI was tested in adult vehicle-treated SHAM (n=10), apocynin-treated SHAM (n=11), vehicle treated NHVL (n=7), and apocynin-treated NVHL (n=5). As illustrated in FIG. 15C a reversal of PPI deficits was observed.
Antioxidant pretreatment regimen: NAC (BioAdvantexPharma, Mississauga, Ontario, Canada) was administered in the drinking water at 900 mg/l. NAC treatment started at P5 or at P35, and previous work in mice has shown that NAC consumed by the dam is transmitted to the pups through her milk (das Neves Duarte et al., 2012). NAC treatment ended at P50. Fresh solutions were prepared every 2-3 days. Ebselen (Sound Pharmaceuticals Inc., Seattle, WA) was administered i.p. 5 days a week starting at P35 until the day of PPI testing (P60). Stock ebselen solution (20 mg/ml DMSO, frozen aliquots) was diluted 1:5 in sterile water and administered at a dose of 10 mg/kg. Control animals received an equivalent concentration of DMSO diluted 1:5 in water. Apocynin (Sigma-Aldrich, St. Louis, MO) was administered in the drinking water at a target dose of 100 mg/kg (Nwokocha et al., 2013). Prior to weaning at P21, drinking water contained a dose of 2 g apocynin per 0.5 1 of water, to ensure delivery through the dam's milk. Apocynin concentration was lowered after weaning to 750 mg/1 to best approximate the target dose. Treatment lasted from P5 to P50 with fresh solutions prepared every other day.
Prepulse inhibition: Starting at P60, both male and female rats were tested for PPI, as described previously (Feleder et al., 2010). As PPI deficits in NVHL rats are most evident when rats are challenged with apomorphine (Lipska et al., 1995), we injected apomorphine (0.1 mg/kg, i.p.) immediately prior to the PPI test session. Rats were placed in a sound- attenuated startle chamber (San Diego Instruments, San Diego, CA) with a 70 dB background white noise. After a 5 min adaptation period, the PPI test was initiated with pseudorandom trials every 15 to 25 seconds. Either pulse (120 dB), prepulse (75 dB, 80 dB, or 85 dB), no pulse or prepulse +pulse were delivered. […]

Structure (SMILES): CC(=O)N[C@@H](CS)C(=O)O [NAC, N-acetyl cysteine]
- effect on PPI deficit (apomorphine 0.1 mg/kg i.p. challenge, juvenile treatment P5 to P50, drinking water): prevented; also recorded: completely reversed
- effect on PPI deficit (adolescent treatment P35 to P50, drinking water, tested P61): prevented
